Measurements from PMC9741287, “Cytotoxic and Luminescent Properties of Novel Organotin Complexes with Chelating Antioxidant Ligand” (Molecules, 2022).

Assays:
HepG2 cells = assay: MTT test with HepG2 cells, 48 h; format: cell-based; details: HepG2, 48 h
Experimental: (§1) Cytotoxic properties of 1 are unusual, so an additional cytotoxicity assay with HepG2 cells was carried out and CC50 values were estimated (Figure 5).
(§2) The fact that ligand 1 itself has cytotoxic properties can be interpreted as the existence of a pharmacological target, specific to 1. The detection of potential targets for ligand 1 involves research on cell cycle influence and many other assays, and will be carried out in future studies.
(§3) Figure 5 An effect of compound 1 at concentrations of 0.001–100 µM on the metabolic activity (viability) of HepG2 cells during 48 h incubation in the MTT test.

[1] = MTT test with HepG2 cells, 48 h; format: cell-based; details: human, HepG2 cells; HepG2, 48 h incubation, MTT
Experimental: as §1, §2, §3

For `CC(C)(C)c1cc(C(=O)N/N=C/c2ccccc2O)cc(C(C)(C)C)c1O` [Compound 1, Di-tert-butyl-4-hydroxy-N′-(2-hydroxybenzylidene)-benzohydrazine], the “Suppression of vital activity relative to the control” value (HepG2 cells; 3 µM) was 25.8 ± 4.0%, the “Minimal concentration that significantly suppresses vital activity” value (HepG2 cells; MTT) was 3 µM and the CC50 at 48 h [1] was 12.4 ± 2 µM.
